Columns and labels:
human CysLT1 receptor = molecular target: T1, human CysLT1 receptor (Homo sapiens, UniProt Q9Y271); assay: Cellular in vitro test to determine the CysLT1 activity (aequorin luminescence, LTD4 stimulation); format: cell-based; conditions: CHO K1 cells with aequorin and human CysLT1 receptor; agonist LTD4 3×10^−9 M
T1 construct: expressed in transfected cells; host or cells: CHO K1 (ATCC) constitutively expressing aequorin
T1 sequence (Q9Y271 1-337): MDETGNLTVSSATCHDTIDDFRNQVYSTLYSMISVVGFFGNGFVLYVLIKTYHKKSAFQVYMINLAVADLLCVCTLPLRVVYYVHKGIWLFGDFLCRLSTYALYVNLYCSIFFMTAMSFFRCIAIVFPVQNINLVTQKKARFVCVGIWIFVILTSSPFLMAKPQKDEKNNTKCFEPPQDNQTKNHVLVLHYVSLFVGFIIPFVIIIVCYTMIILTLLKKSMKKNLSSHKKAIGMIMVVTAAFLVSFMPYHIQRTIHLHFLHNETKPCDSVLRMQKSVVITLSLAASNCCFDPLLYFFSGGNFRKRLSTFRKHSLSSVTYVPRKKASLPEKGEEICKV
Description: 2. Cellular In Vitro Test to Determine the CysLT1 Activity
A recombinant cell line is used to identify antagonists of the human cysteinyl-leukotriene 1 receptor (CysLT1R) and to quantify the activity of the substances described herein. The cell is originally derived from a hamster ovary epithelial cell (Chinese Hamster Ovary, CHO K1, ATCC: American Type Culture Collection, Manassas, Va. 20108, USA). The test cell line constitutively expresses the calcium-sensitive photoprotein aequorin which, after reconstitution with the cofactor coelenterazine, emits light when the cytoplasmic calcium concentration is increased (Rizzuto R, Simpson A W, Brini M, Pozzan T.; Nature 358 (1992) 325-327). The cell is additionally stably transfected with the human CysLT1 receptor (Lynch et al., Nature 399 (1999) 789-793). The resulting CysLT1R test cell responds to stimulation of the recombinant CysLT1 receptor (agonist: leukotriene D4 (LTD4)) with an intracellular release of calcium ions, which can be quantified through the resulting aequorin luminescence with a suitable luminometer (Milligan G, Marshall F, Rees S. Trends in Pharmacological Sciences 17 (1996) 235-237). Preincubation with antagonists of the CysLT1 receptor reduces the calcium release induced by the agonist LTD4 and thus the measured amount of light.
(§1) Test procedure: The cells are plated out two days before the test in culture medium (DMEM/F12 with Glutamax, Gibco Cat.# 61965-026; 10% FCS, Gibco Cat.# 10270-106; 1.4 mM sodium pyruvate, Gibco Cat.# 11360-039; 1.8 mM sodium bicarbonate, Gibco Cat.# 25080-060; 10 mM HEPES, Gibco Cat.# 15290-026; now belongs to Invitrogen GmbH, 76131 Karlsruhe) in 384- (or 1536-)well microtitre plates and kept in a cell incubator (96% humidity, 5% V/V CO2, 37° C.). On the day of the test, the culture medium is replaced by Tyrode solution (in mM: 140 NaCl, 5 KCl, 1 MgCl2, 2 CaCl2, 20 glucose, 20 HEPES) which additionally contains the cofactor coelenterazine (50 μM), and the microtitre plate is then incubated for a further 3-4 hours. 15 minutes after the test substances have been transferred into the wells of the microtitre plate, the resulting light signal is measured after addition of the LTD4 (3×10^−9M) in the luminometer.

[1] = test system: isolated guinea pig hearts; assay: Langendorff guinea pig heart: perfusion pressure and left ventricular pressure after LTC4
Protocol: 3. […] to Detect the Cardiovascular Effect: Langendorff Guinea Pig Heart
The heart is removed after opening the chest cavity of anaesthetized guinea pigs and is introduced into a conventional Langendorff apparatus. The coronary arteries are subjected to a constant volume (10 ml/min) perfusion, and the perfusion pressure arising thereby is recorded via an appropriate pressure transducer. A decrease in the perfusion pressure in this arrangement corresponds to a relaxation of the coronary arteries. At the same time, the pressure developed by the heart during each contraction (the left ventricular pressure) is measured by a balloon introduced into the left ventricle, and a further pressure transducer. The rate at which the isolated heart beats is found by calculation from the number of contractions per unit time.
To detect the effect of CysLT2 receptor antagonists, the perfusion with the agonist LTC4 (10^−8 M) is started 15 minutes before addition of increasing concentrations of the test substance (10^−8 to 10^−6 M).

human CysLT2 receptor = molecular target: T2, human CysLT2 receptor (Homo sapiens, UniProt Q9NS75); assay: Cellular in vitro test to determine the CysLT2 activity (aequorin luminescence, LTD4 stimulation); format: cell-based; conditions: CHO K1 cells with aequorin and human CysLT2 receptor; agonist LTD4 3×10^−8 M
T2 construct: expressed in transfected cells; host or cells: CHO K1 (ATCC) constitutively expressing aequorin
T2 sequence (Q9NS75 1-346): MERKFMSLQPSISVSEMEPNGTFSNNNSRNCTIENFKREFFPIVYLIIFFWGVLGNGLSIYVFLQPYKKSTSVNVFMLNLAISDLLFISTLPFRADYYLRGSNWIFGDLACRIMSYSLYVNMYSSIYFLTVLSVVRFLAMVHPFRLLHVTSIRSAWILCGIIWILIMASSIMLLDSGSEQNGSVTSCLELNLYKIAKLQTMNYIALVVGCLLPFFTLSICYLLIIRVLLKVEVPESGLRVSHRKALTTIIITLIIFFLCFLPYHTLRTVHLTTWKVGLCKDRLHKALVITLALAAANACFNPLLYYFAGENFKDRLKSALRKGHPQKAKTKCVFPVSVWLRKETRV
Description: B. Assessment of the Physiological Activity Abbreviations: DMEM Dulbecco's modified Eagle medium FCS Fetal calf serum HEPES 4-(2-hydroxyethyl)-1-piperazineethanesulphonic acid 1. Cellular In Vitro Test to Determine the CysLT2 Activity
A recombinant cell line is used to identify antagonists of the human cysteinyl-leukotriene 2 receptor (CysLT2R) and to quantify the activity of the substances described herein. The cell is originally derived from a hamster ovary epithelial cell (Chinese Hamster Ovary, CHO K1, ATCC: American Type Culture Collection, Manassas, Va. 20108, USA). The test cell line constitutively expresses the calcium-sensitive photoprotein aequorin which, after reconstitution with the cofactor coelenterazine, emits light when the cytoplasmic calcium concentration is increased (Rizzuto R, Simpson A W, Brini M, Pozzan T.; Nature 358 (1992) 325-327). The cell is additionally stably transfected with the human CysLT2 receptor (Heise et.al., JBC 275 (2000) 30531-30536). The resulting CysLT2R test cell responds to stimulation of the recombinant CysLT2 receptor (agonists: leukotriene D4 (LTD4) and leukotriene C4 (LTC4)) with an intracellular release of calcium ions, which can be quantified through the resulting aequorin luminescence with a suitable luminometer (Milligan G, Marshall F, Rees S, Trends in Pharmacological Sciences 17 (1996) 235-237). Preincubation with antagonists of the CysLT2 receptor reduces the calcium release induced by the agonists LTD4 and LTC4 and thus the measured amount of light.
as §1, with “CaCl2;” for “CaCl2,”, “(3×10^−8 M)” for “(3×10^−9M)”

[2] = LTC4 (10^−8M) + test sub. (10^−6M)
[3] = LTC4 (10^−8M) + test sub. (10^−7M)
[4] = LTC4 (10^−8M) + test sub. (10^−8M)

| SMILES | IC50 (human CysLT1 receptor) | melting point | Left ventricular pressure relative to control without LTC4 [1, 2] | Perfusion pressure relative to control without LTC4 [1, 2] | Left ventricular pressure relative to control without LTC4 [1, 3] | Perfusion pressure relative to control without LTC4 [1, 3] | Left ventricular pressure relative to control without LTC4 [1, 4] | Perfusion pressure relative to control without LTC4 [1, 4] | IC50 (human CysLT2 receptor) |
| --- | --- | --- | --- | --- | --- | --- | --- | --- | --- |
| O=C(O)c1ccc(OCCCc2ccc(OCCCCOc3ccccc3)cc2)c(C(=O)NC2CCCC(C(=O)O)C2)c1 (racemic) [Example 11, 3-{[(3-Carboxycyclohexyl)amino]carbonyl}-4-{3-[4-(4-phenoxybutoxy)phenyl]-propoxy}benzoic acid (racemate B)] | > 10000 nM | 182 to 183 °C | 79% | 108% | 60% | 112% | 44% | 125% | 35 nM |
| O=C(O)c1ccc(OCCCc2ccc(OCCCCOc3ccccc3)cc2)c(C(=O)NC2CCCC(C(=O)O)C2)c1 (racemic) [Example 12, 3-{[(3-Carboxycyclohexyl)amino]carbonyl}-4-{3-[4-(4-phenoxybutoxy)phenyl]-propoxy}benzoic acid (racemate A)] | – | > 210 °C | – | – | – | – | – | – | – |
| O=C(O)c1ccc(OCCCc2ccc(OCc3ccc(-c4ccccc4)cc3)cc2)c(C(=O)N2CCC(C(=O)O)CC2)c1 [Example 13, 1-(2-{3-[4-(1,1′-Biphenyl-4-ylmethoxy)phenyl]propoxy}-5-carboxybenzoyl)-4-piperidinecarboxylic acid] | – | 193 to 194 °C | – | – | – | – | – | – | – |
| O=C(O)c1ccc(OCCCc2ccc(OCCCCOc3ccccc3)cc2)c(C(=O)N2CCC(C(=O)O)CC2)c1 [Example 15, 1-(5-Carboxy-2-{3-[4-(4-phenoxybutoxy)phenyl]propoxy}benzoyl)-4-piperidine-carboxylic acid] | – | 142 to 143 °C | – | – | – | – | – | – | – |
| O=C(O)c1ccc(OCCCc2ccc(OCCCCOc3ccccc3)cc2)c(C(=O)NC2CCC(C(=O)O)CC2)c1 (stereo not shown) [Example 16, 3-{[(4-Carboxycyclohexyl)amino]carbonyl}-4-{3-[4-(4-phenoxybutoxy)phenyl]-propoxy}benzoic acid] | – | 163 to 165 °C | – | – | – | – | – | – | – |
| O=C(O)CC1CCN(C(=O)c2cc(C(=O)O)ccc2OCCCc2ccc(OCCCCOc3ccccc3)cc2)CC1 [Example 18, 3-{[4-(Carboxymethyl)-1-piperidinyl]carbonyl}-4-{3-[4-(4-phenoxybutoxy)phenyl]-propoxy}benzoic acid] | – | 192 °C | – | – | – | – | – | – | – |
| O=C(O)c1ccc(OCCCc2ccc(OCCCC3CCCCC3)cc2)c(C(=O)NC2CCCC(C(=O)O)C2)c1 (stereo not shown) [Example 23, 3-{[(3-Carboxycyclohexyl)amino]carbonyl}-4-{3-[4-(3-cyclohexylpropoxy)phenyl]-propoxy}benzoic acid] | 2000 nM | 160 °C | 97% | 111% | 84% | 127% | 72% | 133% | 5 nM |
| O=C(O)c1ccc(OCCCc2ccc(OCCCC3CCCCC3)cc2)c(C(=O)N2CCC(C(=O)O)CC2)c1 [Example 31, 1-(5-Carboxy-2-{3-[4-(3-cyclohexylpropoxy)phenyl]propoxy}benzoyl)piperidine-4-carboxylic acid] | 2500 nM | 183.4 to 184.5 °C | 87% | 112% | 81% | 123% | 67% | 128% | 14 nM |
| CC(C)Oc1ccc(COc2ccc(CCCOc3ccc(C(=O)O)cc3C(=O)NC3CCCC(C(=O)O)C3)cc2)cc1 (stereo not shown) [Example 33, 3-{[(3-Carboxycyclohexyl)amino]carbonyl}-4-(3-{4-[(4-isopropoxybenzyl)oxy]-phenyl}propoxy)benzoic acid] | > 10000 nM | – | 84% | 108% | 57% | 121% | 44% | 122% | 15 nM |

From patent publication US7498460B2, “Isophthalic acid derivatives” (Bayer Healthcare AG, priority 2002, dated 2009)
